Reference: patent publication US10336792B2, “Antimicrobial peptide dendrimers” (priority 2014, dated 2019)
≈ marks a conversion by molar mass, not a printed value. Positions of bridges follow the written chain, without caps; N, C: chain ends. Non-standard residues stand in square brackets, D forms with d. Residues, ends and D or L forms follow the SMILES beside them. Groups on a side chain read outwards from the residue. Chains are numbered I, II in the order given. Dab = NCC[C@H](N)C(=O)O

Experiments:
[1] = system: Staphylococcus aureus (COL, MRSA reference strain); type: cell-based; settings: COL, reference strain
Procedure, shortened: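 Broth microdilution in Müller-Hinton medium, two-fold serial dilutions from a starting 32–256 μg/mL, compounds dissolved in PBS; inoculum about 5×10^5 CFU, incubated 37° C ~18 h. MIC taken as lowest concentration with no visible growth by eye; polymyxin as reference.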

[2] = 5(6)-Carboxyfluorescein leakage from lipid vesicles; settings: 10 mM TRIS, 107 mM NaCl, pH 7.4; peptide added at 50 s
Experimental: (§1) Preparation A thin lipid film was prepared by evaporating a solution of 25 mg Egg PC or Egg PG in 1 mL MeOH/CHCl3 1/1 on a rotary evaporator (rt) and then in vacuo overnight. The resulting film was hydrated with 1 mL buffer (50 mM CF, 10 mM TIRS, 10 mM NaCl, pH 7.4) for 30 min, subjected to freeze-thaw cycles (7×) and extrusion (15×) through a polycarbonate membrane (pore size 100 nm). Extravesicular components were removed by gel filtration (Sephadex G-50) with 10 mM TRIS, 107 mM NaCl, pH 7.4. Final conditions: ˜2.5 mM Egg PC or Egg PG; inside: 50 mM CF, 10 mM TIRS, 10 mM NaCl, pH 7.4; outside: 10 mM TRIS, 107 mM NaCl, pH 7.4.
(§2) Experiment Egg PC or Egg PG stock solutions (37.5 μL) were diluted with a buffer (10 mM TRIS, 107 mM NaCl, pH 7.4) and placed in a thermostated fluorescence cuvette (25° C.) and gently stirred (total volume in the cuvette ˜3000 μL; final lipid concentration ˜31.25 μM). CF efflux was monitored at λem 517 nm (λex 492 nm) as a function of time after addition of 20 μL of peptide dendrimer in buffer (10 mM TRIS, 107 mM NaCl, pH 7.4) with final concentrations of 1, 5, 7.5, 10, 15, 20, 25, 30 μg/mL at t=50 s and 1.2% trition X-100 (30 μL, 0.012% final concentration) at t=300 s. Fluorescence intensities were normalized to fractional emission intensity I(t) using I(t)=(It−I0)/(I∞−I0) where I0 It at peptide dendrimer addition, I∞=It at saturation of lysis.
Bacterial membranes contain relatively large amounts of exposed anionic lipids, while the outer leaflet of the membranes of plants and animals is composed mainly of lipids with no net charge. The charge composition of such membranes can be mimicked with phospholipid vesicles. Large unilamellar vesicles (LUVs) composed of the neutral phospholipid with PC (phosphatidyl choline) or with PG (phosphatidyl glycerol) with negative charges were prepared encapsulating 5(6)-carboxyfluorescein (CF). […] The higher the concentration of MSt-112 the higher is the CF leakage (FIG. 6A). […] Overall the active AMPDs interact with the negatively charged membrane and release the CF.

[3] = system: Pseudomonas aeruginosa (strain PA01); experiment: microbe, parasite or virus in culture; type: cell-based; settings: strain
Procedure, shortened: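 Broth microdilution MIC against P. aeruginosa PAO1 in LB: peptides serially diluted by ⅔, bacteria added at OD600 0.001 and incubated 18–24 h at 37 °C. MTT added; MIC is the lowest concentration preventing visible growth.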

[4] = 5(6)-Carboxyfluorescein leakage from lipid vesicles; settings: 10 mM TRIS, 107 mM NaCl, pH 7.4; peptide added at 50 s; remark: listed apart in the source
Experimental: as §1, §2

B. subtilis BR151 = experiment: Preliminary resistant development assay (daily MIC for 15 days); type: cell-based, Bacillus subtilis; settings: bacteria from 1/2 MIC well re-tested daily
Experimental: MICs of compounds for B. subtilis BR151 were determined daily for 15 days using cells from the well in which the compound concentration was one-half the MIC value (½ MIC well). […] The re-suspension was then diluted to 5×10^5 cells/ml in LB Broth (OD600=0.1 then diluted 1:100 fold to get OD600=0.001) and used to again determine the MIC of the same compound to which those cells had previously been exposed. All MIC determinations were done in duplicate.
For an initial estimation of how fast resistances could arise with AMPDs the MIC was repeated for 15 days in a row and determined each day. After obtaining the MIC value in usual broth dilution assay the bacteria (B. subtilis) from the ½ MIC well were incubated for 2-5 hours and the dilution assay was repeated. This procedure was realized for 15 days and the MICs of each day compared. In case of an increase of the MIC, it is indicative for a resistance against the AMPDs.

[5] = system: Bacillus subtilis (strain BR151); type: cell-based; settings: strain BR151
Procedure, shortened: (§3)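 Broth microdilution MIC in LB; overnight cultures diluted to OD600 0.001 and mixed 1:1 with ⅔-serially diluted samples (stock 1 mg mL^−1 in H2O), 37° C for 18-24 h. MTT (0.1%) added; MIC read by eye as lowest concentration inhibiting visible growth (yellow).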

[6] = system: Escherichia coli (strain DH5α); type: cell-based; settings: DH5α
Procedure, shortened: as §3

NCC[C@H](NC(=O)[C@H](CCCCNC(=O)[C@H](Cc1c[nH]c2ccccc12)NC(=O)[C@H](CCN)NC(=O)[C@H](CCCCNC(=O)[C@H](Cc1c[nH]c2ccccc12)NC(=O)[C@@H](N)CCN)NC(=O)[C@H](Cc1c[nH]c2ccccc12)NC(=O)[C@@H](N)CCN)NC(=O)[C@H](Cc1c[nH]c2ccccc12)NC(=O)[C@H](CCN)NC(=O)[C@H](CCCCNC(=O)[C@H](Cc1c[nH]c2ccccc12)NC(=O)[C@@H](N)CCN)NC(=O)[C@H](Cc1c[nH]c2ccccc12)NC(=O)[C@@H](N)CCN)C(=O)N[C@@H](Cc1c[nH]c2ccccc12)C(N)=O [MSt-176, (DabW)4(KDabW)2(KDabW)] (I: H-[Dab]WK([Trp-Dab])[Dab]WK[Dab]W-NH2 / II: H-[Dab]WK([Trp-Dab])[Dab]W; amide I:6-II:C; N-terminus assumed)
MIC S. aureus (COL, MRSA reference strain) [1]: below 20 μg/mL
CF leakage from phosphatidylglycerol LUVs [2]: immediate leakage of CF
MIC P. aeruginosa PAO1 [3]: 1 µg/mL (≈ 0.416 µM)
CF leakage from phosphatidylcholine LUVs [4]: induced CF release
change of MIC over 15 days (resistance) (B. subtilis BR151): did not have a significant change of their MIC values over 15 days
MIC B. subtilis BR151 [5]: 1 µg/mL (≈ 0.416 µM)
MIC E. coli DH5α [6]: 3 µg/mL (≈ 1.25 µM)
